In patent publication US20180028712A1, “SKIN-REGENERATING MATERIAL COMPRISING SYNERGISTIC COMBINATION OF METAL OXIDES” (ARGAMAN TECHNOLOGIES LTD., priority 2015, published 2018):

Key:
HFF cell line = test: Proliferation assay (Stage II), Alamar Blue viability of HFF cells
Method: (§1) For the treatments, the saturated solutions were diluted 1:10, 1:100, and 1:500 in the growth medium in a supernatant.
HFF cells were thawed and passaged at least once prior to assay performance. Exponentially growing culture was collected, centrifuged, counted and seeded in 96-well tissue culture plate at a density of 5000 cells/well.
The plate was incubated overnight at 37° C., humidified 5% CO2/air., to enable cells adherence to the wells.
The next day, the growth medium was replaced with the test item solutions in 5% and 1% FBS and vehicle control solution to achieve the final concentrations as designated in the following plate plan (final volume of 200 μl)
Plates were incubated for 24 hours at 37° C., humidified 5% CO2/air.
Following 24 hours, the medium was replaced with fresh growth medium containing 10% of Alamar Blue.

[1] = tested on: Human Foreskin Fibroblasts (HFF); settings: 24 hours following the plate scratching
Method: as §1
HFF cells were thawed and passaged at least once prior to assay performance.

**Q.** With [Ag+].[Ag+].[Ag+].[Ag+].[O-2].[O-2].[O-2].[O-2] [TST, tetrasilver tetroxide] as the compound, how does the “cell proliferation / cytotoxicity result in words” value (HFF cell line; HFF cells, 24 hours, summary of Table 1) read?
**A.** cytotoxic

**Q.** What about the “Number of cells (normalized)” value (HFF cell line; percent viability on HFF cell line, 24 hours incubation and 4 hours with Alamar Blue, control = 100) of the same compound?
**A.** 85

**Q.** What about the “observation of scratched monolayer (proliferation along the scratch)” value ([1]; diluted 1:100, compared to control group) of the same compound?
**A.** many proliferation centers along the scratch

**Q.** What about the “observation of scratched monolayer (cytotoxicity)” value ([1]; saturated solution diluted 1:10) of the same compound?
**A.** cytotoxic
